Measured values published in ChEMBL document CHEMBL4052759, “Discovery of DS79182026: A potent orally active hepcidin production inhibitor” (Bioorg Med Chem Lett, 2017).

What was measured:
[1] = target: Leukocyte tyrosine kinase receptor (Homo sapiens) (UniProt P29376); assay: Inhibition of LTK (unknown origin) at 0.49 uM relative to control
[2] = target: Proto-oncogene tyrosine-protein kinase ROS (Homo sapiens) (UniProt P08922); assay: Inhibition of ROS (unknown origin) at 0.49 uM relative to control
[3] = system: Hepatocyte growth factor receptor (Homo sapiens), P08581 [M1250T]; assay: Inhibition of MET M1250T mutant (unknown origin) at 0.49 uM relative to control
[4] = target: Ephrin type-B receptor 1 (Homo sapiens) (UniProt P54762); assay: Inhibition of EPHB1 (unknown origin) at 0.49 uM relative to control
[5] = target: Cyclin-dependent kinase 2 (Homo sapiens) (UniProt P24941); assay: Inhibition of CDK2 (unknown origin) at 0.49 uM relative to control
[6] = target: Phosphorylase b kinase gamma catalytic chain, liver/testis isoform (Homo sapiens) (UniProt P15735); assay: Inhibition of PhKg2 (unknown origin) at 0.49 uM relative to control
[7] = target: Calcium/calmodulin-dependent protein kinase type II subunit gamma (Homo sapiens) (UniProt Q13555); assay: Inhibition of CaMK2-gamma (unknown origin) at 0.49 uM relative to control
[8] = target: Tyrosine-protein kinase FRK (Homo sapiens) (UniProt P42685); assay: Inhibition of FRK (unknown origin) at 0.49 uM relative to control
[9] = target: Hepatocyte growth factor receptor (Homo sapiens) (UniProt P08581); assay: Inhibition of MET (unknown origin) at 0.49 uM relative to control
[10] = target: Tyrosine-protein kinase ABL1 (Homo sapiens) (UniProt P00519); assay: Inhibition of ABL (unknown origin) at 0.49 uM relative to control
[11] = target: Mast/stem cell growth factor receptor Kit (Homo sapiens) (UniProt P10721); assay: Inhibition of KIT (unknown origin) at 0.49 uM relative to control
[12] = target: Tyrosine-protein kinase JAK2 (Homo sapiens) (UniProt O60674); assay: Inhibition of JAK2 (unknown origin) at 0.49 uM relative to control
[13] = target: Maternal embryonic leucine zipper kinase (Homo sapiens) (UniProt Q14680); assay: Inhibition of MELK (unknown origin) at 0.49 uM relative to control
[14] = target: Tyrosine-protein kinase JAK3 (Homo sapiens) (UniProt P52333); assay: Inhibition of JAK3 (unknown origin) at 0.49 uM relative to control
[15] = target: Inhibitor of nuclear factor kappa-B kinase subunit beta (Homo sapiens) (UniProt O14920); assay: Inhibition of IKK-beta (unknown origin) at 0.49 uM relative to control
[16] = target: Ribosomal protein S6 kinase alpha-6 (Homo sapiens) (UniProt Q9UK32); assay: Inhibition of RSK4 (unknown origin) at 0.49 uM relative to control
[17] = target: Dual specificity protein kinase CLK3 (Homo sapiens) (UniProt P49761); assay: Inhibition of CLK3 (unknown origin) at 0.45 uM relative to control
[18] = system: Tyrosine-protein kinase ABL1 (Homo sapiens), P00519 [T315I]; assay: Inhibition of Abl T315I mutant (unknown origin) at 0.45 uM relative to control
[19] = target: T1, Aurora kinase A (Homo sapiens) (UniProt O14965); assay: Inhibition of AurA (unknown origin) at 0.45 uM relative to control
T1 sequence (whole entry): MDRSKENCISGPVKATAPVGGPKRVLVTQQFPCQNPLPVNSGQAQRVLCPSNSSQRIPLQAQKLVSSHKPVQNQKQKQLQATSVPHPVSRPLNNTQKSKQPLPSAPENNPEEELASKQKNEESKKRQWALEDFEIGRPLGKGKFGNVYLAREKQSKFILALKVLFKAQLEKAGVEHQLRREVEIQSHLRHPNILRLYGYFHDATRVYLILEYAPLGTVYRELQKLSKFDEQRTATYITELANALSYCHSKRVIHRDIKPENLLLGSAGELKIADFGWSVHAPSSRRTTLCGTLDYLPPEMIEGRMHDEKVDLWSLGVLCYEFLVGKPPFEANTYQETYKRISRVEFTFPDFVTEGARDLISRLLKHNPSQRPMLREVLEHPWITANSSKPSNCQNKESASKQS

[20] = target: BDNF/NT-3 growth factors receptor (Homo sapiens) (UniProt Q16620); assay: Inhibition of NTRK2 (unknown origin) at 0.45 uM relative to control
[21] = target: Protein kinase C delta type (Homo sapiens) (UniProt Q05655); assay: Inhibition of PKC-delta (unknown origin) at 0.45 uM relative to control
[22] = target: Serine/threonine-protein kinase D3 (Homo sapiens) (UniProt O94806); assay: Inhibition of PKD3 (unknown origin) at 0.45 uM relative to control
[23] = target: Ribosomal protein S6 kinase alpha-2 (Homo sapiens) (UniProt Q15349); assay: Inhibition of RSK3 (unknown origin) at 0.45 uM relative to control
[24] = target: Serine/threonine-protein kinase Nek2 (Homo sapiens) (UniProt P51955); assay: Inhibition of NEK2 (unknown origin) at 0.45 uM relative to control
[25] = target: CDK4/Cyclin D3 (Homo sapiens) (UniProt P11802+P30281); assay: Inhibition of CDK4/CyclinD3 (unknown origin) at 0.45 uM relative to control; type: protein-complex assay
[26] = target: PAS domain-containing serine/threonine-protein kinase (Homo sapiens) (UniProt Q96RG2); assay: Inhibition of PASK (unknown origin) at 0.45 uM relative to control
[27] = target: Ephrin type-A receptor 1 (Homo sapiens) (UniProt P21709); assay: Inhibition of EPHA1 (unknown origin) at 0.45 uM relative to control
[28] = target: Protein kinase C beta (Homo sapiens) (UniProt P05771); assay: Inhibition of PKC-beta2 (unknown origin) at 0.45 uM relative to control
[29] = target: Serine/threonine-protein kinase Nek1 (Homo sapiens) (UniProt Q96PY6); assay: Inhibition of NEK1 (unknown origin) at 0.45 uM relative to control
[30] = target: Receptor tyrosine-protein kinase erbB-4 (Homo sapiens) (UniProt Q15303); assay: Inhibition of HER4 (unknown origin) at 0.45 uM relative to control
[31] = target: Serine/threonine-protein kinase pim-2 (Homo sapiens) (UniProt Q9P1W9); assay: Inhibition of PIM2 (unknown origin) at 0.078 uM relative to control
[32] = target: Cyclin-dependent kinase 2 (Homo sapiens) (UniProt P24941); assay: Inhibition of CDK2 (unknown origin) at 0.078 uM relative to control

Cc1[nH]nc(C2CC2)c1-c1ccc2c(NC(=O)C3CC3)noc2c1
inhibition [1]: -3.3%
inhibition [2]: -2.3%
inhibition [3]: 1.3%
inhibition [4]: 1.3%
inhibition [5]: 1.3%
inhibition [6]: 0.3%
inhibition [7]: 6%
inhibition [8]: 1.3%
inhibition [9]: 7.3%
inhibition [10]: 38.3%
inhibition [11]: 1%
inhibition [12]: -1.7%
inhibition [13]: 4%
inhibition [14]: -7.3%
inhibition [15]: 2.3%
inhibition [16]: -1.3%

Cc1n[nH]c(C)c1-c1ccc2c(NC(=O)c3ccc(N4CCN(C)CC4)cc3)n[nH]c2c1
inhibition [17]: 6.7%
inhibition [18]: 58.7%
inhibition [19]: 7%
inhibition [20]: 85.7%
inhibition [21]: 5.3%
inhibition [22]: 0.3%
inhibition [23]: 42.7%
inhibition [24]: 3.3%
inhibition [25]: -8.3%
inhibition [26]: -2%
inhibition [27]: 21%
inhibition [28]: 3.7%
inhibition [29]: 3.7%
inhibition [30]: -7%

COC(=O)Nc1noc2cc(-c3c(-c4ccccn4)n[nH]c3C)ccc12
inhibition [31]: 1.7%
inhibition [32]: -4.3%
